According to article PMC9269301, “Phytochemical Analysis, Antioxidant, Antimicrobial, and Cytotoxic Activity of Different Extracts of Xanthoparmelia stenophylla Lichen from Stara Planina, Serbia” (Plants, 2022):
In brackets after ≈: the same amount, converted by molar mass. Where two headings read alike, the source gives them in different places. Marks after values point to notes of the source that are not given here.

Legend:
K. pneumoniae ATCC 70063 = assay: Microdilution with resazurin, antibacterial; type: cell-based, Klebsiella pneumoniae
Description: (§1) The tested methanol, acetone, and n-hexane extracts, as well as the component (usnic acid) of X. stenophylla, were dissolved in 10% dimethyl sulfoxide (DMSO) and then diluted into the nutrient liquid medium. DMSO was obtained from Acros Organics (Fair Lawn, NJ, USA). Resazurin was obtained from Alfa Aesar GmbH & Co. (KG, Karlsruhe, Germany).
(§2) The antimicrobial activity of the extracts and components was tested against 19 microorganisms. The experiment involved 15 strains of bacteria (i.e., 6 standard strains: Staphylococcus aureus ATCC 6538, Bacillus subtilis ATCC 6633, Proteus mirabilis ATCC 12453, Pseudomonas aeruginosa ATCC 27853, Klebsiella pneumoniae ATCC 70063, and Escherichia coli ATCC 25922; 9 isolates: Staphylococcus aureus, Escherichia coli, Salmonella enterica, Salmonella Typhimurium, Proteus mirabilis, Klebsiella pneumoniae, Pseudomonas aeruginosa, Bacillus subtilis, and Bacillus cereus). In addition, four fungal strains (i.e., two standard strains: Candida albicans ATCC 10231 and Aspergillus niger ATCC 16888; two isolates: Saccharomyces cerevisiae and Candida albicans) were tested. All isolates were a generous gift from the Institute of Public Health, Kragujevac. The other microorganisms were provided from the collection held by the Microbiology Laboratory Faculty of Science, University of Kragujevac.
(§3) The bacterial suspensions were prepared by the direct colony method. The turbidity of the initial suspension was adjusted using a densitometer (DEN-1, BioSan, Riga, Latvia). When adjusted to the turbidity of the 0.5 McFarland’s standard (Andrews, 2005) the bacteria suspension contained approximately 10^8 colony-forming units (CFU)/mL, and the suspension of yeast contained 10^6 CFU/mL; 1:100 dilutions of the initial suspension were additionally prepared in sterile 0.85% saline. The suspensions of fungal spores were prepared by gentle stripping of spores from slopes with growing mycelia. The resulting suspensions were 1:1000 diluted in sterile 0.85% saline.
(§4) Antimicrobial activity was tested by determining the minimum inhibitory concentrations (MICs) and minimum microbicidal concentrations (MBCs) using the microdilution plate method with resazurin [56]. The 96-well plates were prepared by dispensing 100 μL of Mueller–Hinton broth for bacteria and Sabouard broth for fungi into each well. A 10 μL aliquot from the stock solution of the tested extract or component was added to the first row of the plate. Then, two-fold serial dilutions were performed using a multichannel pipette. The obtained concentration range was from 10 to 0.08 mg/mL. The method is described in detail in [76].
(§5) Each test included growth control and sterility control.
(§6) Minimum microbicidal concentrations were determined by plating 10 μL of samples from wells where no indicator color change or no mycelia growth was recorded on a nutrient agar medium. At the end of the incubation period, the lowest concentration with no growth (no colony) was defined as the minimum microbicidal concentration.

K. pneumoniae (isolate) = assay: Microdilution with resazurin, antibacterial; type: cell-based, Klebsiella pneumoniae
Description: as §1, §2, §3, §4, §5, §6

P. aeruginosa ATCC 27853 = assay: Microdilution with resazurin, antibacterial; type: cell-based, Pseudomonas aeruginosa
Description: as §1, §2, §3, §4, §5, §6

P. aeruginosa (isolate) = assay: Microdilution with resazurin, antibacterial; type: cell-based, Pseudomonas aeruginosa
Description: as §1, §2, §3, §4, §5, §6

E. coli (isolate) = assay: Microdilution with resazurin, antibacterial; type: cell-based, Escherichia coli
Description: as §1, §2, §3, §4, §5, §6

[1] = test system: HeLa cells (cervical adenocarcinoma); assay: MTT assay; type: cell-based, human; details: HeLa
C. albicans (isolate) = assay: Microdilution with resazurin, antifungal; type: cell-based, Candida albicans; details: extracts and usnic acid
Description: as §1, §2, §3, §4, §5, §6

C. albicans ATCC 10231 = assay: Microdilution with resazurin, antifungal; type: cell-based, Candida albicans; details: extracts and usnic acid
Description: as §1, §2, §3, §4, §5, §6

[2] = DPPH radical scavenging activity; type: biochemical; details: mean ± SD, triplicate
Description: All chemicals for the antioxidant activity test were purchased from Sigma Aldrich. All measurements were conducted in triplicate, and a Shimadzu UV-1800 spectrophotometer was used for all measurements during antioxidant activity experiments. The IC50 value was used for comparing different radical scavenging effects between investigated extracts, isolated compounds, and positive controls. […] [71] with certain modifications. […] The solution was prepared ex tempore and stored in a tinted bottle in the refrigerator until the experiments were performed. […] The reaction mixture was vortexed and allowed to incubate in the dark for one hour, after which the absorbance was measured at 517 nm relative to the blank. […] Ac stands for absorbance of the control (which contains all reagents, except the tested extract or compound), and As is the absorbance of the sample.

[3] = test system: MRC-5 cells (nontransformed human lung fibroblast); assay: MTT assay; type: cell-based
[4] = test system: S. aureus ATCC 6538 biofilm; assay: Biofilm metabolic activity by resazurin; type: cell-based, Staphylococcus aureus; details: at some concentrations, Figure 4
Description: Resazurin (7-hydroxy-3H-phenoxazin-3-one-10-oxide) is a viability dye used to assess the metabolic activity of biofilms. After incubation at 37 °C/48 h, a volume of 10 µL of resazurin indicator solution was added to each well. Plates were incubated in the dark for 3 h at 37 °C. The OD was measured at 590 nm using an enzyme-linked immunosorbent assay (ELISA) plate reader. In addition, the color change from purple to pink indicated the metabolic activity of the formed biofilm.

[5] = test system: MDA-MB 231 cells (breast cancer); assay: MTT assay; type: cell-based, human; details: data not shown
S. cerevisiae (isolate) = assay: Microdilution with resazurin, antifungal; type: cell-based, Saccharomyces cerevisiae; details: extracts and usnic acid
Description: as §1, §2, §3
as §4, with “[76]. […]” for “[76].”
Minimum microbicidal concentrations were determined by plating 10 μL of samples from wells where no indicator color change or no mycelia growth was recorded on a nutrient agar medium. […]

[6] = test system: HCT 116 cells (colon cancer); assay: MTT assay; type: cell-based, human

Molecule: CN(C)[C@@H]1C(O)=C(C(N)=O)C(=O)[C@@]2(O)C(O)=C3C(=O)c4c(O)cccc4[C@@](C)(O)[C@H]3C[C@@H]12 [TC, tetracycline]
- MBC (K. pneumoniae ATCC 70063; Klebsiella pneumoniae, ATCC70063, antibiotics, read-out: MBC): 64 µg/mL (≈ 144 µM)
- MIC (K. pneumoniae ATCC 70063; Klebsiella pneumoniae, ATCC70063, antibiotics, read-out: MIC): 4 µg/mL (≈ 9 µM)
- MBC (K. pneumoniae (isolate); Klebsiella pneumoniae, antibiotics, read-out: MBC): 32 µg/mL (≈ 72 µM)
- MIC (K. pneumoniae (isolate); Klebsiella pneumoniae, antibiotics, read-out: MIC): 4 µg/mL (≈ 9 µM)
- MBC (P. aeruginosa ATCC 27853; Pseudomonas aeruginosa, ATCC27853, antibiotics, read-out: MBC): 32 µg/mL (≈ 72 µM)
- MIC (P. aeruginosa ATCC 27853; Pseudomonas aeruginosa, ATCC27853, antibiotics, read-out: MIC): 4 µg/mL (≈ 9 µM)
- MBC (P. aeruginosa (isolate); Pseudomonas aeruginosa, antibiotics, read-out: MBC): > 128 µg/mL
- MIC (P. aeruginosa (isolate); Pseudomonas aeruginosa, antibiotics, read-out: MIC): > 128 µg/mL
- MBC (E. coli (isolate); Escherichia coli, antibiotics, read-out: MBC): 6 µg/mL (≈ 13.5 µM)
- MIC (E. coli (isolate); Escherichia coli, antibiotics, read-out: MIC): 2 µg/mL (≈ 4.5 µM)

Molecule: usnic acid
- MBC (K. pneumoniae ATCC 70063; extracts and usnic acid): <10000 µg/mL
- MIC (K. pneumoniae ATCC 70063; extracts and usnic acid): <10000 µg/mL
- MBC (K. pneumoniae (isolate); extracts and usnic acid): <10000 µg/mL
- MIC (K. pneumoniae (isolate); extracts and usnic acid): <10000 µg/mL
- GI50 (50% growth inhibition) ([1]; 24 h): >100 µg/mL
- IC50 ([1]; 24 h): >100 µg/mL
- TGI (total growth inhibition) ([1]; 24 h): >100 µg/mL
- GI50 (50% growth inhibition) ([1]; 48 h): 99.16 ± 15.59 µg/mL
- IC50 ([1]; 48 h): >100 µg/mL
- TGI (total growth inhibition) ([1]; 48 h): >100 µg/mL
- GI50 (50% growth inhibition) ([1]; 72 h): 64.28 ± 8.34 µg/mL
- TGI (total growth inhibition) ([1]; 72 h): 86.91 ± 5.42 µg/mL
- IC50 ([1]; 72 h, listed as UA): >100 µg/mL
- MFC (C. albicans (isolate)): <10000 µg/mL
- MIC (C. albicans (isolate)): 10000 µg/mL
- MFC (C. albicans ATCC 10231): <10000 µg/mL
- MIC (C. albicans ATCC 10231): 10000 µg/mL
- DPPH Radical Scavenging Activity (IC50) [2]: 64.92 ± 1.06 ^a,b,c,d µg/mL
- GI50 (50% growth inhibition) ([3]; MRC-5, 24 h): 42.97 ± 1.56 µg/mL
- IC50 ([3]; MRC-5, 24 h): 66.18 ± 1.72 µg/mL
- TGI (total growth inhibition) ([3]; MRC-5, 24 h): >100 µg/mL
- GI50 (50% growth inhibition) ([3]; MRC-5, 48 h): 41.31 ± 0.56 µg/mL
- IC50 ([3]; MRC-5, 48 h): 78.54 ± 0.87 µg/mL
- TGI (total growth inhibition) ([3]; MRC-5, 48 h): 93.25 ± 0.08 µg/mL
- GI50 (50% growth inhibition) ([3]; MRC-5, 72 h): 36.73 ± 0.92 µg/mL
- IC50 ([3]; MRC-5, 72 h): 53.14 ± 1.04 µg/mL
- TGI (total growth inhibition) ([3]; MRC-5, 72 h): 89.15 ± 0.25 µg/mL
- MBC (P. aeruginosa ATCC 27853; extracts and usnic acid): <10000 µg/mL
- MIC (P. aeruginosa ATCC 27853; extracts and usnic acid): 10000 µg/mL
- MBC (P. aeruginosa (isolate); extracts and usnic acid): <10000 µg/mL
- MIC (P. aeruginosa (isolate); extracts and usnic acid): 10000 µg/mL
- Metabolic activity of biofilm compared to the growth control [4]: lower
- Overall inhibitory effect (MTT), in words [5]: of minor importance
- MFC (S. cerevisiae (isolate)): 10000 µg/mL
- MIC (S. cerevisiae (isolate)): 5000 µg/mL
- MBC (E. coli (isolate); extracts and usnic acid): <10000 µg/mL
- MIC (E. coli (isolate); extracts and usnic acid): <10000 µg/mL
- GI50 (50% growth inhibition) ([6]; HCT 116, 24 h): 41.94 ± 3.12 µg/mL
- IC50 ([6]; HCT 116, 24 h): >100 µg/mL
- TGI (total growth inhibition) ([6]; HCT 116, 24 h): 79.12 ± 1.18 µg/mL
- GI50 (50% growth inhibition) ([6]; HCT 116, 48 h): 27.21 ± 1.94 µg/mL
- IC50 ([6]; HCT 116, 48 h): 83.99 ± 4.22 µg/mL
- TGI (total growth inhibition) ([6]; HCT 116, 48 h): 63.58 ± 0.90 µg/mL
- GI50 (50% growth inhibition) ([6]; HCT 116, 72 h): 15.87 ± 2.89 µg/mL
- IC50 ([6]; HCT 116, 72 h): 23.79 ± 2.10 µg/mL
- TGI (total growth inhibition) ([6]; HCT 116, 72 h): 64.91 ± 1.44 µg/mL
